Patent US12466832B2, “Monohydrate and crystalline forms of 6-[(3S,4S)-4-methyl-1-(pyrimidin-2-ylmethyl)pyrrolidin-3-yl]-3-tetrahydropyran-4-yl-7H-imidazo[1,5-a]pyrazin-8-one” (Cardurion Pharmaceuticals, Inc., priority 2018, dated 2025)

Assays:
Assay type in all cases: physicochemical
[1] = Stability studies with competitive slurries of the two hydrates; details: ambient conditions
Procedure: Procedure: Saturated solutions of the supplied MH 1 (J08343) were prepared in different solvents/systems (1 ml). The saturated solutions were then filtered and used for competitive slurry experiments.
MH1 and MH2 (ca. 15 mg each) were physically mixed before they were treated with the filtered saturated solutions (300 μL). The samples were stirred at 25° C. for 24 h then filtered, air dried and analysed by XRPD.
The same solvents were used as for samples in water activity experiments with additional IPA/heptane mixtures as this is the current crystallisation solvent. This procedure was also followed for IPA/heptane at 5 and 50° C. (3 days slurrying).
Further experiments were designed to increase the diversity of solvents/systems studied while still investigating the effect of water activity on the form obtained. This was with a view to define a solvent list for Phase 3 (Solvent Selection). Further saturated solutions were prepared as described in the procedure section using MH1 as supplied.

[2] = Solubility repeat at pH 1.2 (reverse addition); details: pH 1.2 buffered media, pH 1.2, simulated gastric fluid, thermodynamic from solid, pH maintained at 1.2, reverse addition
Procedure: Procedure: pH 1.2 buffered media (0.4 ml) was added to two separate 7 ml vials. For each compound, material was added in portions to the pH 1.2 media. After each addition of compound, the vial was vortex mixed and the pH and appearance was recorded. The samples were adjusted to pH 1.2 with 1M HCl to within 0.05 of the desired pH unit. This was repeated until no further material was available (˜400 mg for each form, which would give a maximum concentration of around 1000 mg/ml if no adjustment was required).

[3] = Water activity experiments (slurries, XRPD)
Procedure: MH1 (30.0 mg) was weighed into HPLC vials and placed in a vacuum oven to dry over the weekend. All samples were then placed in a desiccator prior to use to ensure dryness. Solvent ([…]) was added and slurries agitated at either 25° C. or 5° C. Further MH1 was added to any solutions formed to return to a slurry. Ethyl acetate and methyl acetate were both dried prior to use. After four days, the samples were analysed by XRPD with minimum exposure to ambient conditions.
Selected samples were also characterised after standing at ambient for 2 days by XRPD, 1H NMR, TGA and DSC.

[4] = Solubility assessment of MH1 in solvents (HPLC of liquors, XRPD of isolated solids); details: for solubility at 24 h: organic solvent or mixture, thermodynamic from solid
Procedure: Procedure: Four solvents were chosen based on the competitive slurry experiments that favored MH1 as well as for diversity. Combinations of those solvents with water (aw=0.35) were also utilized to verify which hydrate is favored. Mixtures of the solvents with heptane (1:1) were used to check for crystal form with a good antisolvent.
MH1 (22×104 mg) was suspended in various solvents (11×0.5 ml) and stirred at either 5 or 50° C. for 24 hours at 750 rpm. The solids were isolated by filtration and centrifugation and the liquors were analysed by HPLC to determine their solubility (relative to a standard made up). The solids were also investigated by XRPD. This procedure was also followed for an additional five solvent systems comprising different ratios of THF:heptane and IPA:heptane at either 5 or 50° C. The isolated solids were investigated by XRPD, HPLC and ^1HNMR.

[5] = Gravimetric Vapour Sorption (GVS); details: 25° C., 0-90% RH
Procedure: Sorption isotherms were obtained using a SMS DVS Intrinsic moisture sorption analyzer, controlled by DVS Intrinsic Control software. The sample temperature was maintained at 25° C. by the instrument controls. The humidity was controlled by mixing streams of dry and wet nitrogen, with a total flow rate of 200 ml/min. The relative humidity was measured by a calibrated Rotronic probe (dynamic range of 1.0-100% RH), located near the sample. The weight change, (mass relaxation) of the sample as a function of % RH was constantly monitored by a microbalance (accuracy ±0.005 mg).
Typically, 5-30 mg of sample was placed in a tared mesh stainless steel basket under ambient conditions. The sample was loaded and unloaded at 40% RH and 25° C. (typical room conditions). A moisture sorption isotherm was performed as outlined below (2 scans per complete cycle). The standard isotherm was performed at 25° C. at 10% RH intervals over a 0-90% RH range. Typically, a double cycle (4 scans) was carried out. Data analysis was carried out within Microsoft Excel using the DVS Analysis Suite.
The sample was recovered after completion of the isotherm and re-analyzed by XRPD.

[6] = 0.5% water/EtOAc, Aw = 0.3, four days
[7] = 0.8% water/MeOAc, Aw = 0.4, four days
[8] = 1% water/EtOAc, Aw = 0.5, four days
[9] = 1.5% water/EtOAc, Aw = 0.6, four days
[10] = 2% water/EtOAc, Aw = 0.7, four days
[11] = 2.7% water/EtOAc, Aw = 0.8, four days
[12] = 7.5% water/MeOAc, Aw = 0.9, four days
[13] = EtOAc, Sieves, slurry four days
[14] = Ethanol:Heptane 1:1, 5° C., 24 hours
[15] = IPrOAc:0.5% water, 50° C., 24 hours
[16] = IPrOAc:Heptane 1:1, 5° C., 24 hours
[17] = IPrOAc:Heptane 1:1, 50° C., 24 hours
[18] = THF:0.8% water, 5° C., 24 hours
[19] = THF:Heptane 1:1, 5° C., 24 hours
[20] = THF:Heptane 1:1, 50° C., 24 hours

SMILES: C[C@@H]1CN(Cc2ncccn2)C[C@H]1c1cn2c(C3CCOCC3)ncc2c(=O)[nH]1 [MH1, 6-[(3S,4S)-4-methyl-1-(pyrimidin-2-ylmethyl)pyrrolidin-3-yl]-3-tetrahydropyran-4-yl-7H-imidazo[1,5-a]pyrazin-8-one]
- Relative stability of the forms [1]: most stable form at ambient conditions
- Solubility [2]: > 153 mg/mL
- Results for 5° C. (form by XRPD) [3, 6]: MH1
- Results for 25° C. (form by XRPD) [3, 6]: MH1
- Results for 5° C. (form by XRPD) [3, 7]: MH1
- Results for 25° C. (form by XRPD) [3, 7]: MH1
- Results for 5° C. (form by XRPD) [3, 8]: New Form
- Results for 25° C. (form by XRPD) [3, 8]: MH1
- Results for 5° C. (form by XRPD) [3, 9]: New Form
- Results for 25° C. (form by XRPD) [3, 9]: MH1
- Results for 5° C. (form by XRPD) [3, 10]: New Form
- Results for 25° C. (form by XRPD) [3, 10]: New Form
- Results for 5° C. (form by XRPD) [3, 11]: New Form
- Results for 25° C. (form by XRPD) [3, 11]: New Form
- Results for 5° C. (form by XRPD) [3, 12]: New Form
- Results for 25° C. (form by XRPD) [3, 12]: New Form
- Results for 5° C. (form by XRPD) [3, 13]: MH1
- Results for 25° C. (form by XRPD) [3, 13]: MH1
- Solubility ([4]; Ethanol, 5° C., 24 hours): >200 mg/mL
- Solubility ([4]; Ethanol, 50° C., 24 hours): >200 mg/mL
- Solubility ([4]; Ethanol:4.2% water, 5° C., 24 hours): >200 mg/mL
- XRPD (isolated solid) [4, 14]: MH1 + AH
- XRPD (isolated solid) ([4]; Heptane, 5° C., 24 hours): MH1
- XRPD (isolated solid) ([4]; Heptane, 50° C., 24 hours): MH1 + AH
- XRPD (isolated solid) ([4]; IPA, 5° C., 24 hours): MH1 + AH
- Solubility ([4]; IPA, 50° C., 24 hours): >200 mg/mL
- XRPD (isolated solid) ([4]; IPA:Heptane 1:1, 5° C.): MH1
- XRPD (isolated solid) ([4]; IPA:Heptane 1:2, 5° C.): MH1
- XRPD (isolated solid) ([4]; IPA:Heptane 1:2, 50° C.): MH1
- XRPD (isolated solid) ([4]; IPA:Heptane 1:3, 5° C.): MH1
- XRPD (isolated solid) ([4]; IPA:Heptane 1:3, 50° C.): MH1
- solubility at 24 h ([4]; IPrOAc with 0.5% water, IPrOAc:0.5% water, 5° C., 24 hours): 3.8 mg/mL
- XRPD (isolated solid) ([4]; IPrOAc, 5° C., 24 hours): MH1
- XRPD (isolated solid) ([4]; IPrOAc, 50° C., 24 hours): MH1 + AH
- XRPD (isolated solid) ([4]; IPrOAc:0.5% water, 5° C., 24 hours): MH2
- XRPD (isolated solid) [4, 15]: MH1
- XRPD (isolated solid) [4, 16]: MH1
- XRPD (isolated solid) [4, 17]: MH1
- XRPD (isolated solid) ([4]; THF, 5° C., 24 hours): MH2 + New peaks
- Solubility ([4]; THF, 50° C., 24 hours): >200 mg/mL
- XRPD (isolated solid) [4, 18]: MH2
- XRPD (isolated solid) [4, 19]: MH1
- XRPD (isolated solid) [4, 20]: MH1
- XRPD (isolated solid) ([4]; THF:Heptane 1:2, 5° C.): MH1
- XRPD (isolated solid) ([4]; THF:Heptane 1:2, 50° C.): MH1
- XRPD (isolated solid) ([4]; THF:Heptane 2:1, 5° C.): MH2
- XRPD (isolated solid) ([4]; THF:Heptane 2:1, 50° C.): MH1
- solubility at 24 h ([4]; ethanol with 4.2% water, Ethanol:4.2% water, 5° C., 24 hours): > 200 mg/mL
- solubility at 24 h ([4]; Ethanol, 5° C., 24 hours): > 200 mg/mL
- solubility at 24 h ([4]; Ethanol, 50° C., 24 hours): > 200 mg/mL
- solubility at 24 h ([4]; Ethanol:4.2% water, 50° C., 24 hours): > 200 mg/mL
- solubility at 24 h [4, 14]: 170 mg/mL
- solubility at 24 h ([4]; Ethanol:Heptane 1:1, 50° C., 24 hours): > 200 mg/mL
- solubility at 24 h ([4]; IPA, 5° C., 24 hours): 130 mg/mL
- solubility at 24 h ([4]; IPA, 50° C., 24 hours): > 200 mg/mL
- solubility at 24 h ([4]; IPA:Heptane 1:1, 5° C.): 40 mg/mL
- solubility at 24 h ([4]; IPA:Heptane 1:1, 50° C.): > 200 mg/mL
- solubility at 24 h ([4]; IPA:Heptane 1:2, 5° C.): 14 mg/mL
- solubility at 24 h ([4]; IPA:Heptane 1:2, 50° C.): 19 mg/mL
- solubility at 24 h ([4]; IPA:Heptane 1:3, 5° C.): 8 mg/mL
- solubility at 24 h ([4]; IPA:Heptane 1:3, 50° C.): 10 mg/mL
- solubility at 24 h ([4]; IPrOAc, 5° C., 24 hours): 11 mg/mL
- solubility at 24 h ([4]; IPrOAc, 50° C., 24 hours): 6.3 mg/mL
- solubility at 24 h [4, 15]: 5.6 mg/mL
- solubility at 24 h [4, 16]: 1.9 mg/mL
- solubility at 24 h [4, 17]: 2.1 mg/mL
- solubility at 24 h ([4]; THF, 5° C., 24 hours): 79 mg/mL
- solubility at 24 h ([4]; THF, 50° C., 24 hours): > 200 mg/mL
- solubility at 24 h [4, 18]: 76 mg/mL
- solubility at 24 h ([4]; THF:0.8% water, 50° C., 24 hours): > 200 mg/mL
- solubility at 24 h [4, 19]: 6.3 mg/mL
- solubility at 24 h [4, 20]: 11 mg/mL
- solubility at 24 h ([4]; THF:Heptane 1:2, 5° C.): 0.33 mg/mL
- solubility at 24 h ([4]; THF:Heptane 1:2, 50° C.): 0.62 mg/mL
- solubility at 24 h ([4]; THF:Heptane 2:1, 5° C.): 17 mg/mL
- solubility at 24 h ([4]; THF:Heptane 2:1, 50° C.): 21 mg/mL
- GVS Max uptake [5]: Max uptake of 4.7%, no hysteresis, large step
